{"source": "patent US20140357512A1", "about": "“HISTONE DEACETYLASE (HDAC) BIOMARKERS IN MULTIPLE MYELOMA” (priority 2013, published 2014)", "tested_on": "human myeloma cell line MM.1S", "test": "SILAC acetylated-lysine peptide profiling, HDAC inhibitor vs DMSO (light/heavy ratio)", "assay_type": "cell-based", "source_text": "An embodiment of the invention comprises utilizing the SILAC method in order to quantitate changes in protein expression between two or more populations of cells. The SILAC method is a technique based on mass spectrometry that detects differences in protein abundance among samples using non-radioactive isotopic labeling. The SILAC method is known in the art, and described in detail in Ong et al., “Stable Isotope Labeling by Amino Acids in Cell Culture, SILAC, as a Simple and Accurate Approach to Expression Proteomics”, Molecular & Cellular Proteomics, vol. 1, pp. 376-386 (2002), which is incorporated herein by reference in its entirety.\nBriefly, the SILAC method involves growing two populations of cells in cell culture. The first population of cells is grown in growth media containing normal amino acids (“normal media”). The second population of cells is grown in media lacking a standard essential amino acid (such as lysine), but is then supplemented with a non-radioactive, isotopically labeled form of that essential amino acid (such as lysine labeled with ^13C atoms, rather than normal ^12C atoms), which is called “heavy media”. When the two populations of cells are each growing in the medium, they incorporate the amino acids into all of their proteins. The growth of cells maintained in the heavy media is no different from that in normal media. All peptides containing the heavy amino acids are heavier than their normal counterparts. The cells from each of the two populations of cells are lysed. The lysates from each of the two cell populations are then combined. The combined cell lysates are then analyzed by mass spectrometry. Pairs of chemically identical peptides of different stable isotope composition can be differentiated in a mass spectrometer due to their difference in mass. The ratio of peak intensities in the mass spectrum for such peptide pairs reflects the abundance ratio for the two proteins.\nThis example describes SILAC studies that were performed to compare the effects of three different HDAC inhibitors (Compound A, Compound B, and tubastatin A) to a control on a human multiple myeloma cell line. The HDAC inhibitors were also compared amongst themselves to determine differences in their effects.\nA human myeloma cell line MM.1S was grown using either ^12C (light) or ^13C (heavy) lysine containing culture medium. The “heavy” cells were treated with DMSO as the control, and the “light” cells were treated with a single HDAC inhibitor at 37° C. for 6 hours. The heavy and light cells were lysed, and the lysates were mixed in 1:1 ratio and digested with the protease trypsin. The acetylated lysine containing peptides (due to the action of the HDAC inhibitor) in the digested peptide pool were captured by a non-specific anti-acetylated lysine antibody cocktail (the antibodies identify both light and heavy acetylated peptides), and subjected to mass spectrometry analysis in order to identify thousands of individual peptides.\nThousands of peptides were identified in pairs (^12C and ^13C) due to their known mass differences. The amino acid sequence and quantitative ratio (Light/Heavy) of a given peptide in two differentially treated cell lysates were then determined and annotated with their possible protein (gene) sources.\nAs stated above, three HDAC inhibitors (Compound A, Compound B, and Tubastatin A) were used. Thus, the SILAC method was performed three times, with a different HDAC inhibitor compared to a control each time. Accordingly, there are three pairs of quantitative data in the table below, i.e., Compound A:DMSO, Compound B:DMSO, and Tubastatin A:DMSO. A cut-off of 1.30 fold of change (increase or decrease) was then used to determine “changed” or “+” in the table, and any peptides with a fold of change less than 1.3 fold were determined to be “unchanged” or “0” in the table. Those peptides that were not identified were marked as “NA” in the table. […]", "data": [{"smiles": "O=C(CCCCCCNC(=O)c1cnc(N(c2ccccc2)c2ccccc2)nc1)NO", "note": "[Compound A, 2-(diphenylamino)-N-(7-(hydroxyamino)-7-oxoheptyl)pyrimidine-5-carboxamide]", "values": [{"measurement": "L/H ratio of acetylated peptide DWVLNEFK(ac)HGK (SEQ ID NO: 33)", "setting": "DDX5 [388], log 2 scale, drug vs DMSO", "value": 0.00}, {"measurement": "L/H ratio of acetylated peptide FEK(ac)[…] (SEQ ID NO: 32)", "setting": "DDX17 [132], log 2 scale, drug vs DMSO", "value": 0.00}, {"measurement": "L/H ratio of acetylated peptide ELNK(ac)ILEGR (SEQ ID NO: 2)", "setting": "DLAT [466], log 2 scale, drug vs DMSO", "value": 0.00}, {"measurement": "light to heavy ratio (L/H ratio) of acetylated peptide SQFLK(ac)YIEK (SEQ ID NO: 524)", "setting": "DNA replication licensing factor MCM2 [534], gene MCM2, inhibitor:DMSO", "value": "−0.46", "unit": "log 2"}, {"measurement": "light to heavy ratio (L/H ratio) of acetylated peptide TFEK(ac)SMMNLQTK (SEQ ID NO: 354)", "setting": "DNA topoisomerase 1 [642], TOP1, drug:DMSO", "value": 0.00, "unit": "log 2"}, {"measurement": "L/H ratio of acetylated peptide VVK(ac)HPIFER (SEQ ID NO: 35)", "setting": "DNAJB11 [247], log 2 scale, drug vs DMSO", "value": 0.00}, {"measurement": "L/H ratio of acetylated peptide", "setting": "DVTLQK(ac)QCVPFR (SEQ ID NO: 486), 60S ribosomal protein L17 [55], RPL17", "value": 0.71, "unit": "log 2"}, {"measurement": "light to heavy ratio (L/H ratio) of acetylated peptide LNLDK(ac)MMEQK (SEQ ID NO: 603)", "setting": "Dihydrolipoyl dehydrogenase mitochondrial [122], gene DLD, inhibitor:DMSO", "value": 0.46, "unit": "log 2"}, {"measurement": "light to heavy ratio (L/H ratio) of acetylated peptide DTYIENEK(ac)LISGK (SEQ ID NO: 352)", "setting": "Dolichyl-diphosphooligosaccharide--protein glycosyltransferase subunit 1 precursor [626], RPN1, drug:DMSO", "value": 0.00, "unit": "log 2"}, {"measurement": "light to heavy ratio (L/H ratio) of acetylated peptide YNIEK(ac)DIAAHIK (SEQ ID NO: 553)", "setting": "Dynein light chain 1 cytoplasmic [36], gene DYNLL1, inhibitor:DMSO", "value": 0.40, "unit": "log 2"}, {"measurement": "light to heavy ratio (L/H ratio) of acetylated peptide YNIEK(ac)DIAAYIK (SEQ ID NO: 331)", "setting": "Dynein light chain 2 cytoplasmic [36], DYNLL2, drug:DMSO", "value": 0.00, "unit": "log 2"}, {"measurement": "L/H ratio of acetylated peptide", "setting": "EHLLK(ac)YEYQPFAGK (SEQ ID NO: 482), Isoform 1 of WD repeat-containing protein 1 [95], WDR1", "value": 0.47, "unit": "log 2"}, {"measurement": "L/H ratio of acetylated peptide TSK(ac)NK(ac)SSLSR (SEQ ID NO: 14)", "setting": "EP300 [1558:1560], log 2 scale, drug vs DMSO", "value": 1.00}, {"measurement": "light to heavy ratio (L/H ratio) of acetylated peptide YLAEK(ac)YEWDVAEAR (SEQ ID NO: 332)", "setting": "Elongation factor 2 [638], EEF2, drug:DMSO", "value": 0.00, "unit": "log 2"}, {"measurement": "light to heavy ratio (L/H ratio) of acetylated peptide TFK(ac)GVVDVVMK (SEQ ID NO: 550)", "setting": "Elongation factor G 2 mitochondrial precursor [265], gene GFM2, inhibitor:DMSO", "value": 0.39, "unit": "log 2"}, {"measurement": "light to heavy ratio (L/H ratio) of acetylated peptide KSDYIK(ac)LYVR (SEQ ID NO: 315)", "setting": "Endoplasmin [410], HSP90B1, drug:DMSO", "value": 1.00, "unit": "log 2"}, {"measurement": "light to heavy ratio (L/H ratio) of acetylated peptide EK(ac)[…] (SEQ ID NO: 314)", "setting": "Endoplasmin[ 142], HSP90B1, drug:DMSO", "value": 1.00, "unit": "log 2"}, {"measurement": "light to heavy ratio (L/H ratio) of acetylated peptide EVEEDEYK(ac)AFYK (SEQ ID NO: 261)", "setting": "Endoplasmin[ 356], HSP90B1, drug:DMSO", "value": 0.41, "unit": "log 2"}, {"measurement": "light to heavy ratio (L/H ratio) of acetylated peptide K(ac)EELTLEGIR (SEQ ID NO: 510)", "setting": "Eukaryotic initiation factor 4A-I [238], gene EIF4A1, inhibitor:DMSO", "value": "−0.60", "unit": "log 2"}, {"measurement": "light to heavy ratio (L/H ratio) of acetylated peptide LMCK(ac)PIFSK (SEQ ID NO: 335)", "setting": "Eukaryotic translation initiation factor 2 subunit 3 [312], EIF2S3, drug:DMSO", "value": 0.00, "unit": "log 2"}, {"measurement": "light to heavy ratio (L/H ratio) of acetylated peptide SHLAK(ac)EGLYQYK (SEQ ID NO: 533)", "setting": "Eukaryotic translation initiation factor 3 subunit A [68], gene EIF3A, inhibitor:DMSO", "value": "−0.41", "unit": "log 2"}, {"measurement": "L/H ratio of acetylated peptide", "setting": "FGIAAK(ac)[…] (SEQ ID NO: 479), Isoform 2 of Voltage-dependent anion-selective channel protein 2 [224], VDAC2", "value": "−0.40", "unit": "log 2"}, {"measurement": "light to heavy ratio (L/H ratio) of acetylated peptide, log 2 scale", "setting": "FPHSAHQK(ac)YVR (SEQ ID NO: 253), Ribosomal protein L14 variant [71], RPL14", "value": "−0.39"}, {"measurement": "L/H ratio of acetylated peptide", "setting": "FVATGHGK(ac)YEK (SEQ ID NO: 487), Lymphocyte-specific protein 1 [327], LOC100133284, LSP1", "value": 0.75, "unit": "log 2"}, {"measurement": "light to heavy ratio (L/H ratio) of acetylated peptide AVDLIQK(ac)HK (SEQ ID NO: 546)", "setting": "Flap endonuclease 1 [252], gene FEN1, inhibitor:DMSO", "value": 0.39, "unit": "log 2"}, {"measurement": "light to heavy ratio (L/H ratio), log 2 scale, acetylated peptide GGVVGIK(ac)VDK (SEQ ID NO: 774)", "setting": "Fructose-bisphosphate aldolase A [108], gene ALDOA, drug:DMSO", "value": 1.00}, {"measurement": "L/H ratio of acetylated peptide TCEESSFCK(ac)R (SEQ ID NO: 36)", "setting": "GANAB [48], log 2 scale, drug vs DMSO", "value": 0.00}, {"measurement": "L/H ratio of acetylated peptide ASGLAAGK(ac)GVIVAK (SEQ ID NO: 37)", "setting": "GART [156], log 2 scale, drug vs DMSO", "value": 0.00}, {"measurement": "L/H ratio of acetylated peptide LVK(ac)VWNLANCK (SEQ ID NO: 39)", "setting": "GNB2L1 [175], log 2 scale, drug vs DMSO", "value": 0.00}, {"measurement": "L/H ratio of acetylated peptide IIVDELK(ac)QEVISTSSK (SEQ ID NO: 38)", "setting": "GNB2L1 [271], log 2 scale, drug vs DMSO", "value": 0.00}, {"measurement": "L/H ratio of acetylated peptide", "setting": "GSK(ac)K(ac)AVTK (SEQ ID NO: 490), Histone H2B type 2-E [16:17], HIST2H2BE", "value": 1.00, "unit": "log 2"}, {"measurement": "L/H ratio of acetylated peptide (ac)AHYNFK(ac)K (SEQ ID NO: 40)", "setting": "GTPBP4 [7], log 2 scale, drug vs DMSO", "value": 0.00}, {"measurement": "L/H ratio of acetylated peptide", "setting": "GVHPK(ac)FPEGGK (SEQ ID NO: 483), NADH-cytochrome b5 reductase 1 [124], CYB5R1", "value": 0.48, "unit": "log 2"}, {"measurement": "light to heavy ratio (L/H ratio) of acetylated peptide (ac)[…](ac)PGECLR (SEQ ID NO: 575)", "setting": "Galectin-1 [13], gene LGALS1, inhibitor:DMSO", "value": 0.42, "unit": "log 2"}, {"measurement": "light to heavy ratio (L/H ratio) of acetylated peptide ISGASEK(ac)[…] (SEQ ID NO: 543)", "setting": "Glutamate dehydrogenase 1 mitochondrial [503], gene GLUD1, inhibitor:DMSO", "value": 0.39, "unit": "log 2"}, {"measurement": "light to heavy ratio (L/H ratio) of acetylated peptide […](ac)YDNSLK (SEQ ID NO: 620)", "setting": "Glyceraldehyde-3-phosphate dehydrogenase [139], gene GAPDH, inhibitor:DMSO", "value": 0.48, "unit": "log 2"}]}]}
